Consider 3 compounds from patent US20240197728A1, “METHODS AND PHARMACEUTICAL COMPOSITIONS FOR TREATING REFRACTORY EPILEPSY” (INSERM (INSTITUT NATIONAL DE LA SANTÉ ET DE LA RECHERCHE …, priority 2021, published 2024).

The subject of one data set is SPAK. Briefly: Immunoblot of SPAK phosphorylation and expression in hippocampo-cortical slices. Format: cell-based, rat. To be noted: 10 μM WNK463, 2 h; vs DMSO. As for the experimental part:
(§1) For all experiments on hippocampal cultures, neurons were pre-incubated for 2 hours with either DMSO, PCPZ or CLP257 in a CO2 incubator set at 37° C. Drugs were added directly to the culture medium. For electrophysiology experiments, neurons were also recorded in presence of these drugs in the bath. For biochemistry experiments on rat hippocampo-cortical slices, slices were incubated with either DMSO (vehicle), CLP257, PCPZ, WNK463 or sodium orthovanadate for 2 hours in interface chambers set at 37° C. For human tissue experiments, slices were pre-incubated with either DMSO, CLP257 or PCPZ for 2 hours in interface chambers set at 37° C. and then also recorded in presence of these compounds.
(§2) 8-weeks old Sprague Dawley male rats were anesthetized by intraperitoneal ketamine/xylazine injection (120/10 mg/kg) and perfused transcardially with ice-cold (0-4° C.), oxygenated solution (O2/CO2 95/5%), containing (in mM): N-methyl-d-glucamine 93, KCl 2.5, NaH2PO4 1.2, NaHCO330, HEPES 20, D-glucose 20, ascorbic acid 5, sodium pyruvate 3, MgSO4 10 and CaCl2) 0.5 (300-310 mOsm, pH7.4). Brains were removed and transverse hippocampo-cortical slices (400 m thick) were prepared in the same solution using a vibratome (HM650V, Microm). Slices were then incubated for 2-hours with DMSO, the KCC2 enhancers (CLP257, PCPZ, WNK43) or sodium orthovanadate in an interface chamber containing artificial cerebrospinal fluid (ACSF) composed of (in mM): D-glucose 10, KCl 3.5, NaHOC3 26, NaH2PO4 1.25, NaCl 126, CaCl2) 1.6 and MgCl2 1.2 (290 mOsm), equilibrated with 5% CO2 in 95% 02. After the treatments, slices were washed with cold PBS, instantaneously frozen with liquid nitrogen and stored at −80° C.
(§3) Slices were mechanically lysed on ice, using a 2 mL Dounce, in a buffer containing (in mM): Tris/HCl, pH 7.5 50, EGTA 1, EDTA 1, sodium orthovanadate 1, sodium-B-glycerophosphate 10, sodium fluoride 50, sodium pyrophosphate 5, sucrose 270, benzamidine 1, phenylmethylsulfonyl fluoride 2, Triton […], (v/v) 2-mercaptoethanol 0.1% and protease inhibitors (Roche). After complete homogenization, samples were centrifuged (16,000×g at 4° C. for 10 min) and the supernatant was collected. Protein quantification was done using Pierce BCA Protein Assay kit (Thermo Scientific) with BSA as standard.
Samples were subjected to electrophoresis on polyacrylamide gradient gels (4-12% bis-tris gels) and transferred to nitrocellulose membranes. Membranes were rinsed with TBS-tween solution (TBST; Invitrogen) and blocked with 5% (w/v) skim milk. […] Fluorescence was detected and the relative intensities of immunoblot bands were determined using Odyssey infrared imaging system (LI-COR Bioscience). […]

Another data set relates to OSR1. Briefly: Immunoblot of OSR1 phosphorylation and expression in hippocampo-cortical slices. The data set is classed as cell-based, rat. To be noted: 10 μM WNK463, 2 h; vs DMSO. The method, then:
as §1, §2, §3
Samples were subjected to electrophoresis on polyacrylamide gradient gels (4-12% bis-tris gels) and transferred to nitrocellulose membranes. Membranes were rinsed with TBS-tween solution (TBST; Invitrogen) and blocked with 5% (w/v) skim milk. The membranes were then immunoblotted in 5% (w/v) skim milk in TBST with a primary antibody against KCC2 (rabbit, 07-432; Millipore; 1:1000), or phosphotyrosine (mouse, clone 4G10, Millipore, 1:1000), and a mouse primary antibody against neuron-specific beta-III tubulin overnight at 4° C. (clone 2G10; T8578; Sigma-Aldrich; 1:1000). They were then washed three times with distillated water, three times with TBST-milk solution and incubated for one hour at RT with goat secondary antibodies anti-rabbit IRDye 800 (1:3000; LI-COR), goat anti-mouse IRDye 700 (1:3000; LI-COR) or donkey anti-sheep DyLight 800 (1:3000; Rockland). Membranes were then washed again with TBST three times and one time with TBS. Fluorescence was detected and the relative intensities of immunoblot bands were determined using Odyssey infrared imaging system (LI-COR Bioscience). […]
For orientation: A western blot detects proteins with antibodies after separation by electrophoresis.

In a further data set the test system is KCC2. The data set is described as follows: Immunoprecipitation/immunoblot of KCC2 phosphorylation and expression in hippocampo-cortical slices. The data set is classed as cell-based, rat. The method, then:
as §1, §2, §3
The following phosphorylation site-specific antibodies: anti-KCC3A phospho Thr1048 (0.35 mg/ml, sheep, [S0961C] 1st bleed, Dundee), anti-KCC3A phospho Thr 991 (0.26 mg/ml, sheep, [S959C] 1st bleed, Dundee) were first incubated for 30 min at 4° C. with the corresponding non-phosphorylated peptide (10 mg/ml, Dundee).
Phospho-antibodies or anti-KCC2 antibodies (07-432; Millipore) were then coupled with protein-G-Sepharose (4 Fast Flow; Sigma-Aldrich) at a ratio of […] of antibody per 100 μl of beads, for 2 h at 4° C. without agitation. 1.5 mg of clarified cell lysate was incubated with the antibody-coupled bead suspension, overnight at 4° C. under gentle agitation. The supernatant was collected after centrifugation and beads were washed twice with NaCl solution (0.25M NaCl in 1×PBS) and twice with PBS alone. Bound proteins were eluted with 2×LDS sample buffer (Invitrogen) containing 0.5% (v/v) 2-mercaptoethanol and denaturated at 75° C. for 20 min (IP with phospho-antibodies) or 37° C. for 1 h (IP with anti-KCC2 antibodies) before centrifugation (13,000×g at 4° C. for 15-20 min).
Samples were subjected to electrophoresis on polyacrylamide gradient gels (4-12% bis-tris gels) and transferred to nitrocellulose membranes. Membranes were rinsed with TBS-tween solution (TBST; Invitrogen) and blocked with 5% (w/v) skim milk. The membranes were then immunoblotted in 5% (w/v) skim milk in TBST with a primary antibody against KCC2 (rabbit, 07-432; Millipore; 1:1000), or phosphotyrosine (mouse, clone 4G10, Millipore, 1:1000), and a mouse primary antibody against neuron-specific beta-III tubulin overnight at 4° C. (clone 2G10; T8578; Sigma-Aldrich; 1:1000). […]

Data set [1] relates to spontaneous interictal-like discharges (IIDs) in slices from mTLE patients. The data set is described as follows: Multielectrode array recording of postoperative hippocampal-subicular slices from mTLE patients. Format: cell-based, human. To be noted: 10 μM bumetanide, >10 min application. As for the experimental part:
as §1
Patients or their legal guardians gave informed consent to participate in the study. Patients ([…], 3 males, 4 female, age range: 16-54 years) diagnosed with mesial temporal lobe epilepsy with hippocampal sclerosis underwent multimodal preoperative neurological, neurophyschological and psychiatric evaluations as well as video-electroencephalographic recording, magnetic resonance imaging and fluorodeooxyglugose positron emission tomography. Cortectomies were performed at Sainte-Anne Hospital by neurosurgeons B. Devaux and B. Turak and at Pitié-Salpêtriére Hospital by neurosurgeons S. Clemenceau and B. Mathon. Cortical specimens collected in the operating room were immediately transported in ice-cold (0-4° C.), oxygenated solution (O2/CO2 95/5%), containing (in mM): N-methyl-d-glucamine 93, KCl 2.5, NaH2PO4 1.2, NaHCO3 30, HEPES 20, D-glucose 20, ascorbic acid 5, sodium pyruvate 3, MgSO4 10 and CaCl2 0.5 (300-310 mOsm, pH7.4) and transported within 15 minutes to the laboratory. Transverse hippocampal-subicular slices (400 m thick) were prepared in the same solution using a vibratome (HM650V, Microm). They were maintained for 20-30 minutes at 37° C. and then at room temperature in an interface chamber containing artificial cerebrospinal fluid (ACSF) composed of (in mM): D-glucose 10, KCl 3.5, NaHOC3 26, NaH2PO4 1.25, NaCl 126, CaCl2 1.6 and MgCl2 1.2 (290 mOsm), equilibrated with 5% CO2 in 95% 02.
Multielectrode array recordings were performed using a MEA2100 station (Multi Channel Systems) equipped with a 120-microelectrode array chamber (custom 12×10 layout, 30 μm TiN electrodes spaced 1 mm vertical and 1.5 mm horizontal). Slices were maintained in the recording chamber using a home-made platinum-nylon harp and superfused with pre-warmed (37° C.) oxygenated ACSF at a rate of 6 ml/min. Slices were imaged using a video-microscope table (MEA-VMT1, Multi Channel Systems) in order to register the location of electrodes with respect to the slice. Extracellular signals were acquired at a sampling rate of 10 kHz using Multi Channel Experimenter (Multi Channel Systems) and analyzed offline using homemade software (Matlab, The Mathworks).

The target in another data set is T1, NKCC1 (Homo sapiens, UniProt P55011).
T1 sequence (P55011 1-1212): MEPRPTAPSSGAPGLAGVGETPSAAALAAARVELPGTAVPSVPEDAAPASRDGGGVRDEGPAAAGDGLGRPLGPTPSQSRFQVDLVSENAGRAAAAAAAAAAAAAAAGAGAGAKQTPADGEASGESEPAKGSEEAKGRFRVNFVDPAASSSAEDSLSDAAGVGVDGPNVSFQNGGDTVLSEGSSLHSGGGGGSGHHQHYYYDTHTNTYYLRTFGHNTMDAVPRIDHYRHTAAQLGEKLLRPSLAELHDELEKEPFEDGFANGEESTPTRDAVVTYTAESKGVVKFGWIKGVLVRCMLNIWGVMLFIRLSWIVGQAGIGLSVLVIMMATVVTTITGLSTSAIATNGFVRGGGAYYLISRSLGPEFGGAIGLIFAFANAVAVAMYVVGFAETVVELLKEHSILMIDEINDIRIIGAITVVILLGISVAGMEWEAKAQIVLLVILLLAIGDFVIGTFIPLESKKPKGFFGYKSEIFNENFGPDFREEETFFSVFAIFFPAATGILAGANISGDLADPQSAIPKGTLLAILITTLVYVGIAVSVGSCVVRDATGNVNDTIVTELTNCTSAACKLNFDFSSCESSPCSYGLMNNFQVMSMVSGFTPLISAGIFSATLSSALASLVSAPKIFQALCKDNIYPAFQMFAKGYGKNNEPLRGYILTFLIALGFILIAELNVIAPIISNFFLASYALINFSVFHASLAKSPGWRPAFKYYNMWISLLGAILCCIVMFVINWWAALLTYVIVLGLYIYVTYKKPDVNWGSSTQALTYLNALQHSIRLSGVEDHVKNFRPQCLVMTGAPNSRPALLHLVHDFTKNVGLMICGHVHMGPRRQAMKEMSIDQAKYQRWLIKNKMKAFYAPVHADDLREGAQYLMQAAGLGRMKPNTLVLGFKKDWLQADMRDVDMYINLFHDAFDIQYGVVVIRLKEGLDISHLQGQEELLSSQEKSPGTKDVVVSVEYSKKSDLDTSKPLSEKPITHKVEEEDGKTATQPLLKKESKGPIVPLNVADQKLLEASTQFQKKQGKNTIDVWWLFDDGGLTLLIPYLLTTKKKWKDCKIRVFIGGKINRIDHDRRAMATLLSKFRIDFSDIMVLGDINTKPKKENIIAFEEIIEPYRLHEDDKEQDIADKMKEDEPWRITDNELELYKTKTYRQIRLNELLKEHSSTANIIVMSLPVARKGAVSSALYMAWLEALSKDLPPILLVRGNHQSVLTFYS
To be noted: NEMO trial, neonatal seizures; cited from earlier work.

`CC(C)(C)NC(=O)c1cncn1C1CCN(c2ccc(-c3nnc(C(F)(F)F)o3)cn2)CC1` [WNK463]: the “change of SPAK phosphorylation (S327)” value in the data set on SPAK is −84.10±4.57%. The “change of OSR1 phosphorylation (S325)” value in the data set with OSR1 is listed as −81.00±5.56%. In the data set on KCC2 (10 μM WNK463, 2 h, slices, vs DMSO), the “change of total KCC2 expression” value is −7.64±13.00%. For the same compound, in the data set with KCC2 (10 μM WNK463, 2 h, vs DMSO), the “change of KCC2 phosphorylation at S940” value was −14.40±4.67%, the “change of KCC2 phosphorylation at T906” value is −13.70±12.5% and the “change of KCC2 phosphorylation at T1007” value is recorded as −78.702±3.27%.
Turning to `CCCCNc1cc(C(=O)O)cc(S(N)(=O)=O)c1Oc1ccccc1` [bumetanide], the “slices in which the amplitude of IIDs was reduced or IIDs abolished” value in data set [1] is listed as 3 of 4. Moreover, at NKCC1, the “hearing loss in surviving patients” value was 3/11.
As to `[Na+].[Na+].[Na+].[O]=[V]([O-])([O-])[O-]` [sodium orthovanadate], the “change of tyrosine phosphorylation of KCC2” value with KCC2 (sodium orthovanadate 200 μM in H2O (FIG. 4 legend), 2 h) is “+89.10±45.40%”.
